This passage reports Ki and ED50 results from patent US20150322083A1, “(THIENO[2,3-b][1,5]BENZOXAZEPIN-4-YL)PIPERAZIN-1-YL COMPOUNDS AS SELECTIVE 5-HT2A INVERSE AGONISTS” (Eli Lilly and Company, priority 2014, published 2015).

The target of one experiment is H1 receptors (Homo sapiens, UniProt P35367). Nature of the experiment: H1 receptor binding. The method, then: Curves are evaluated using a 4-parameter logistic nonlinear equation to obtain the concentration of competitor causing 50% inhibition of radioligand binding (IC50). Equilibrium dissociation constants (Ki) are calculated according to the equation Ki=IC50/(1+L/Kd), where L equals the concentration of radioligand used in the experiment and Kd equals the equilibrium dissociation constant of the radioligand for the receptor, determined from standard saturation analysis or homologous competition experiments. Reported values for Ki, where n values are indicated, are shown as geometric mean±the standard error of the mean (SEM), with the number of replicate determinations indicated by n. Geometric means are calculated by the equation GeoMean=10̂(Average(log Ki 1+log Ki 2+ . . . log Ki n)/[…]).
Further, the compounds of the invention may be tested in binding assays and functional activity assays by well known methods for other physiologically important receptors such as, but not limited to, the hERG channel, other serotonin receptors (specifically 5-HT1B receptors, lack of agonist activity at 5-HT2B receptors, 5-HT2C, 5-HT5, 5-HT6, and 5-HT7 receptors), dopaminergic receptors (specifically D1, D2, and D3), H1 receptors, GABAA receptors, adrenergic receptors and monoamine transporters.

Another experiment deals with T1, 5-HT2A receptor (Rattus norvegicus, UniProt P14842).
T1 construct: from tissue; host or cells: rat brain (frontal cortex vs cerebellum), in vivo
Briefly: 5-HT2A receptor occupancy in vivo (MDL 100907 tracer). More on the design: species or system male Sprague-Dawley rats. The following applies: oral gavage, 1 hr. before tracer. The protocol:
Briefly, male Sprague-Dawley rats (Harlan Sprague-Dawley, Indianapolis, Ind.) weighing approximately 230-280 g are given ad lib access to food and water until the beginning of the 3 hr. experimental protocol. 1 mg/Kg ketanserin (non-selective 5-HT2A antagonist) is used as a positive control to establish assay validity. Test compounds or control are administered by oral gavage in a vehicle comprised of 20% hydroxypropyl beta-cyclodextrin. MDL 100907 ((R)-(+)-α-(2,3-Dimethoxyphenyl)-1-[2-(4-fluorophenyl)ethyl]-4-piperidinemethanol), a selective 5-HT2A antagonist, is used as a tracer. […] It is at the time of tracer administration that receptor occupancy (RO) is considered to be measured. […] The level of MDL 100907 tracer is measured in each cortical and cerebellar sample. RO is calculated using the well-established ratio method which employs a region of high receptor density representative of total binding (frontal cortex) normalized by an area without or with very low levels of receptor (cerebellum). […]
MDL 100907 Analysis: Cortex and cerebellar samples are weighed and placed in conical centrifuge tubes on ice. […] Standards are prepared by adding known quantities of analyte to brain tissue samples from non-treated rats and processing as described above.+− […]

T1 sequence (P14842 whole entry): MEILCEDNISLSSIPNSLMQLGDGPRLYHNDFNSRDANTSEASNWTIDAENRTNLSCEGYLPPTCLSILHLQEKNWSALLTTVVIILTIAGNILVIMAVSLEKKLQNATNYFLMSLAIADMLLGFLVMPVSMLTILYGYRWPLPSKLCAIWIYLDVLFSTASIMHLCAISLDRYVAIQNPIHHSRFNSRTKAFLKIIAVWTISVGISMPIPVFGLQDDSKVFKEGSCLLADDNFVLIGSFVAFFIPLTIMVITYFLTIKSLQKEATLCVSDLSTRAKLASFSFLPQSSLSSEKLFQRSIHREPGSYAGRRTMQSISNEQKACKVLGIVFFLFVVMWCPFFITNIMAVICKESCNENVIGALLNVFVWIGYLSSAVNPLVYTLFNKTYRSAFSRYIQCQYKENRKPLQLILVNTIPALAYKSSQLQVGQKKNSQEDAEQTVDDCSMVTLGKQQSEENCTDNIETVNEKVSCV
H1 receptors, sequence (P35367 whole entry): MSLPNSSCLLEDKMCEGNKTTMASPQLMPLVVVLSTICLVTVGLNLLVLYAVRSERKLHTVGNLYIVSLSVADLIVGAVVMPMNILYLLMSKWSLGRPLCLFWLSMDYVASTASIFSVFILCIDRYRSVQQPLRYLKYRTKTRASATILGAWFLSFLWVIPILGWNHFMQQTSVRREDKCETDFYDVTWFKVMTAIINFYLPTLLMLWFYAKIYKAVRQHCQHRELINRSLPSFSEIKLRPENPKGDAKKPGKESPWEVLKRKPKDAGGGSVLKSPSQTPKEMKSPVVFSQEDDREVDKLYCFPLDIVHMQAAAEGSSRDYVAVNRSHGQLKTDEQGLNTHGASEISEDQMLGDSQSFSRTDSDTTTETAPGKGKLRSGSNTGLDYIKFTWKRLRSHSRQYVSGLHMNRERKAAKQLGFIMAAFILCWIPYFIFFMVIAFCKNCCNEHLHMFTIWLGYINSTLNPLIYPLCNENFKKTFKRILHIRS

The Ki is the dissociation constant of the complex between target and ligand, obtained from inhibition or displacement. A low value points to a stronger hold on the target. The term ED50 denotes the dose at which the effect has come halfway, by size or by number of responders. A lower ED50 goes with greater potency. Take `Cc1ccc2c(c1)Oc1sc(SC(C)C)cc1C(N1CCN(CC(C)(C)C(=O)O)CC1)=N2` [Example 1, 3-[4-(2-isopropylsulfanyl-8-methyl-thieno[2,3-b][1,5]benzoxazepin-4-yl)piperazin-1-yl]-2,2-dimethyl-propanoic acid]: the affinity on H1 receptors corresponds to a Ki of 599 nM. Moreover, on 5-HT2A receptor, the ED50 came to 0.54 mg/kg.
